Measured values reported in publication PMC5042178, “Amino acid residues of bitter taste receptor TAS2R16 that determine sensitivity in primates to β-glycosides” (Biophysics and Physicobiology, 2016).
Residue numbers refer to the chain shown, from its start. Like-named read-outs stand apart in the source and are kept apart here.

Experiments:
Experiment in all cases: calcium imaging (Calcium-4), HEK […]
Assay type in all cases: cell-based
[1] = target: T1, human TAS2R16 (Homo sapiens, UniProt Q9NYV7, E86T/I247M/V260F)
T1 construct: full-length; N-terminal 45 residues of rat SSTR3 and C-terminal 8 residues of bovine rhodopsin as tags; pEAK10, HEK 293T with G16gust44
T1 sequence (Q9NYV7 1-291 E86T/I247M/V260F): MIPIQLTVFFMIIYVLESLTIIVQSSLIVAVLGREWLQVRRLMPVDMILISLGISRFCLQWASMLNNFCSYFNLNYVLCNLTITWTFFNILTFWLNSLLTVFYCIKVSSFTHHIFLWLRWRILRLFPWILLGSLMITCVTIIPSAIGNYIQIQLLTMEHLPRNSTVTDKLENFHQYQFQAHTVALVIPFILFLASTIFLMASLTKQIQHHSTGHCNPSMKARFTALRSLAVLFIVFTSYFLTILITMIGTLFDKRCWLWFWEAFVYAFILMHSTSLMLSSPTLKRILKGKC

[2] = target: T2, human TAS2R16 (Homo sapiens, UniProt Q9NYV7); conditions: G16gust44 co-expressed; agonist
T2 construct: full-length; N-terminal 45 residues of rat SSTR3 and C-terminal 8 residues of bovine rhodopsin as tags; pEAK10, HEK 293T with G16gust44
T2 sequence (Q9NYV7 1-291): T1 sequence (Q9NYV7 1-291 E86T/I247M/V260F) with T86E, M247I, F260V

[3] = target: T3, human TAS2R16 (Homo sapiens, UniProt Q9NYV7, E86T/V260F)
T3 construct: full-length; N-terminal 45 residues of rat SSTR3 and C-terminal 8 residues of bovine rhodopsin as tags; pEAK10, HEK 293T with G16gust44
T3 sequence (Q9NYV7 1-291 E86T/V260F): T1 sequence (Q9NYV7 1-291 E86T/I247M/V260F) with M247I

[4] = target: T4, human TAS2R16 (Homo sapiens, UniProt Q9NYV7, V260F)
T4 construct: full-length; N-terminal 45 residues of rat SSTR3 and C-terminal 8 residues of bovine rhodopsin as tags; pEAK10, HEK 293T with G16gust44
T4 sequence (Q9NYV7 1-291 V260F): T1 sequence (Q9NYV7 1-291 E86T/I247M/V260F) with T86E, M247I

[5] = target: T5, human TAS2R16 (Homo sapiens, UniProt Q9NYV7, I247M)
T5 construct: full-length; N-terminal 45 residues of rat SSTR3 and C-terminal 8 residues of bovine rhodopsin as tags; pEAK10, HEK 293T with G16gust44
T5 sequence (Q9NYV7 1-291 I247M): T1 sequence (Q9NYV7 1-291 E86T/I247M/V260F) with T86E, F260V

[6] = target: T6, human TAS2R16 (Homo sapiens, UniProt Q9NYV7, S133C)
T6 construct: full-length; N-terminal 45 residues of rat SSTR3 and C-terminal 8 residues of bovine rhodopsin as tags; pEAK10, HEK 293T with G16gust44
T6 sequence (Q9NYV7 1-291 S133C): T1 sequence (Q9NYV7 1-291 E86T/I247M/V260F) with T86E, S133C, M247I, F260V

[7] = target: T7, human TAS2R16 (Homo sapiens, UniProt Q9NYV7, L125W)
T7 construct: full-length; N-terminal 45 residues of rat SSTR3 and C-terminal 8 residues of bovine rhodopsin as tags; pEAK10, HEK 293T with G16gust44
T7 sequence (Q9NYV7 1-291 L125W): T1 sequence (Q9NYV7 1-291 E86T/I247M/V260F) with T86E, L125W, M247I, F260V

[8] = target: T8, human TAS2R16 (Homo sapiens, UniProt Q9NYV7, E86T/I247M)
T8 construct: full-length; N-terminal 45 residues of rat SSTR3 and C-terminal 8 residues of bovine rhodopsin as tags; pEAK10, HEK 293T with G16gust44
T8 sequence (Q9NYV7 1-291 E86T/I247M): T1 sequence (Q9NYV7 1-291 E86T/I247M/V260F) with F260V

[9] = target: T2, human TAS2R16

Row | EC50 [1] | EC50 [3] | EC50 [4] | EC50 [5] | EC50 [6] | EC50 [7] | EC50 [8] | Compound | EC50 [2] | EC50 [9]
1 | 5090 ± 1100 µM | 3650 ± 1000 µM | 1280 ± 180 µM | 1400 ± 90 µM | 74 ± 6 µM | 200 ± 50 µM | 3540 ± 550 µM | OCc1ccccc1O[C@@H]1O[C@H](CO)[C@@H](O)[C@H](O)[C@H]1O [salicin] | plotted with wild-type human and macaque TAS2R16s | –
2 | – | – | – | – | – | – | – | N#C[C@H](O[C@@H]1O[C@H](CO[C@@H]2O[C@H](CO)[C@@H](O)[C@H](O)[C@H]2O)[C@@H](O)[C@H](O)[C@H]1O)c1ccccc1 [amygdalin] | – | 760 ± 400 µM
